{"source": "patent US20240189242A1", "about": "“LIPID NANOPARTICLE COMPOSITIONS AND METHODS OF FORMULATING THE SAME” (MODERNATX, INC., priority 2021, published 2024)", "format_in_all_cases": "physicochemical", "key": {"RNA [1]": {"test_system": "RNA", "assay": "percentage of IG in binary mixtures of RNA and ionizable lipid, ion pair reversed phase HPLC", "settings": "for levels of IG: binary mixtures of RNA and Compound III with 1 mM agent, versus control; for initial rate of IG formation: Compound III binaries with 5 mM agent (FIG. 15)", "source_text": "To detect and quantify the amount of IG present in LNP formulations comprising polynucleotides and lipid, a protocol was developed (FIG. 2) that included (1) extraction of the polynucleotide molecules (e.g. precipitation, liquid:liquid extraction); (2) assessment of integrity (e.g. purity, length) of the isolated polynucleotides by known methods (e.g. fragment analyzer, gel electrophoresis); and (3) analysis of the isolated polynucleotides by HPLC.\n(§1) RNA was extracted from the LNP formulation by precipitation in ammonium acetate in isopropanol; resuspended in water to target a final RNA concentration of 0.1 mg/mL; and assessed by fragment analyzer capillary electrophoresis and ion pair reversed phase HPLC (performed on a Thermo DNApac RP 100×2.1 mm column at 65° C., with mobile phases containing 50 mM dibutylammonium acetate and 100 mM triethylammonium acetate in water and acetonitrile). Elution with an acetonitrile gradient provided an RNA separation primarily driven by mRNA length and sensitive to any added hydrophobic elements. Two prominent peaks were apparent on the HPLC chromatogram (FIG. 2), including a “main peak” comprising non-adduct mRNA and an “IG” peak comprising mRNA with one or more covalent modifications. The mass fraction of RNA containing at least one lipid adduct was determined by integrating the area under the curve (AUC) of all RNA peaks (including products shorter than the full-length product, the full-length product, and the hydrophobic modified RNA) and taking the late-eluting region as an area percent of the total peak area.\nCompound III was dissolved in ethanol at a concentration of 4 mg/mL, and the RNA diluted in sodium acetate buffer pH 5.5; the RNA and lipids were then mixed in 25% ethanol. Samples were held at 25° C., and the RNA was periodically extracted by precipitation in isopropanol and analyzed by ion pair reversed phase (FIGS. 5 and 6A, data marked by *)."}, "RNA [2]": {"test_system": "RNA", "assay": "percentage of IG in binary mixtures of RNA and ionizable lipid, ion pair reversed phase HPLC"}, "RNA [3]": {"test_system": "RNA", "assay": "percentage of IG in LNPs buffered with PBS or Tris, HPLC", "experimental": "as §1\nTo determine if different buffering conditions confer reductions in the percentage of IG formed in binary mixtures of RNA and Compound III, binary mixtures were prepared with RNA and Compound III and buffered with PBS or Tris at and the percentage of IG in the resulting binary mixtures was quantified according to the protocol detailed in Example 1. In brief, a single batch of LNPs was split mid-process into four aliquots, two of which were prepared in a final buffer of 1×PBS and the other two of which were prepared in a final buffer of 100 mM Tris-HCl pH 7.4. […]\nTo determine if different buffering conditions confer reductions in the percentage of IG formed in binary mixtures of RNA and Compound VI, binary mixtures were prepared with RNA and Compound VI and buffered PBS or Tris at and the percentage of IG in the resulting binary mixtures was quantified according to the protocol detailed in Example 1."}}, "data": [{"smiles": "O=C(O)CCCC[C@@H]1CCSS1", "note": "(racemic) [lipoic acid]", "values": [{"measurement": "levels of IG", "setting": "RNA [1]; 25° C., after 18 hours", "result": "reduced levels of IG"}]}, {"smiles": "CCCCCCCCCCCOC(=O)CCCCCN(CCO)CCCCCCCC(=O)OC(CCCCCCCC)CCCCCCCC", "note": "[Compound III]", "values": [{"measurement": "percentage of IG over time", "setting": "RNA [2]; binary mixtures with RNA", "result": "increased over time"}, {"measurement": "IG", "setting": "RNA [2]; control binary mixtures of RNA and Compound III (Example 5), after 0 days", "result": "~10", "unit": "%"}, {"measurement": "IG", "setting": "RNA [2]; control binary mixtures of RNA and Compound III (Example 5), after 5 days", "result": "~40", "unit": "%"}, {"measurement": "IG", "setting": "RNA [2]; control binary mixtures of RNA and Compound III (Example 5), after 25 days", "result": "~45", "unit": "%"}, {"measurement": "IG", "setting": "RNA [2]; control binary mixtures of RNA and Compound III (Example 6), 25° C., after 1 day", "result": "~15", "unit": "%"}, {"measurement": "IG", "setting": "RNA [2]; control binary mixtures of RNA and Compound III (Example 6), 25° C., after 7 days", "result": "~40", "unit": "%"}, {"measurement": "IG detected", "setting": "RNA [2]; control binary mixtures of RNA and Compound III (Example 7), 25° C., after 18 hours", "result": "~35", "unit": "%"}, {"measurement": "IG detected", "setting": "RNA [2]; control binary mixtures of RNA and Compound III, after 13 days of incubation at 25° C.", "result": "~45", "unit": "%"}, {"measurement": "percentage IG detected", "setting": "RNA [2]; mRNA and Compound III treated with higher concentrations of sodium metabisulfite (KDS), removed by dialysis with 20 mM Tris, t=0 h and 24 hours", "result": "reduced when treated with higher concentrations"}, {"measurement": "IG formation over time", "setting": "RNA [1]; chromatographically purified Compound III (up to 99% purity, no detectable Compound III-N-oxide) and RNA", "result": "still formed IG over time"}, {"measurement": "IG", "setting": "RNA [1]; control binary mixtures of RNA and Compound III (Example 6), 25° C., after 3 days", "result": "~35", "unit": "%"}, {"measurement": "IG detected", "setting": "RNA [1]; control binary mixtures of RNA and Compound III (Example 11), 25° C., after 18 hours", "result": "~20", "unit": "%"}, {"measurement": "percentage of IG over time", "setting": "RNA [3]; Compound III LNPs buffered with Tris and stored either at 5° C. or 20° C.", "result": "around 10%"}, {"measurement": "percentage of IG, Tris versus PBS", "setting": "RNA [3]; Compound III LNPs, 100 mM Tris-HCl pH 7.4 (5° C., −20° C.) versus 1×PBS (5° C.)", "result": "lower in binary mixtures buffered with Tris compared to binary mixtures buffered with PBS"}]}, {"smiles": "CCCCCCCCCN(CCCCCCCCC)CCN(CCCCCCCCC)CC(=O)N1CCN(C(=O)CN(CCCCCCCCC)CCCCCCCCC)CC1", "note": "[Compound VI]", "values": [{"measurement": "IG", "setting": "RNA [2]; control binary mixtures of RNA and Compound VI, after 1 day", "result": "~55", "unit": "%"}, {"measurement": "IG", "setting": "RNA [2]; control binary mixtures of RNA and Compound VI, after 2 days", "result": "~70", "unit": "%"}, {"measurement": "IG", "setting": "RNA [2]; control binary mixtures of RNA and Compound VI, after 13 days", "result": "~80", "unit": "%"}, {"measurement": "percentage of IG, Tris versus PBS", "setting": "RNA [3]; Compound VI LNPs stored at 5° C., 20 mM Tris, 8% sucrose, pH 8 versus 1×PBS, pH 7.2", "result": "lower in binary mixtures buffered with Tris compared to binary mixtures buffered with PBS"}]}, {"smiles": "Clc1ccc(C(c2ccc(Cl)cc2)C(Cl)(Cl)Cl)cc1", "note": "[DDT, dichlorodiphenyltrichloroethane]", "values": [{"measurement": "levels of IG", "setting": "RNA [1]; 25° C., after 18 hours", "result": "reduced levels of IG"}]}, {"smiles": "O[C@H](CS)[C@@H](O)CS", "note": "[DTE, dithioerythritol]", "values": [{"measurement": "levels of IG", "setting": "RNA [1]; 25° C., after 18 hours", "result": "reduced levels of IG"}]}, {"smiles": "O[C@H](CS)[C@H](O)CS", "note": "[DTT, dithiothreitol]", "values": [{"measurement": "levels of IG", "setting": "RNA [1]; 25° C., after 18 hours", "result": "reduced levels of IG"}]}, {"smiles": "CC(=O)N[C@@H](CS)C(=O)O", "note": "[N-acetyl cysteine]", "values": [{"measurement": "initial rate of IG formation", "setting": "RNA [1]", "result": "effective at eliminating the fast initial rate of IG formation"}, {"measurement": "levels of IG", "setting": "RNA [1]; 25° C., after 18 hours", "result": "reduced levels of IG"}]}, {"smiles": "O=C(O)CCP(CCC(=O)O)CCC(=O)O", "note": "[TCEP, tris(2-carboxyethyl)phosphine]", "values": [{"measurement": "levels of IG", "setting": "RNA [1]; 25° C., after 18 hours", "result": "reduced levels of IG"}]}, {"smiles": "NCCSSCCN", "note": "[cystamine]", "values": [{"measurement": "levels of IG", "setting": "RNA [1]; 25° C., after 18 hours", "result": "reduced levels of IG"}]}, {"smiles": "N[C@@H](CCC(=O)N[C@@H](CS)C(=O)NCC(=O)O)C(=O)O", "note": "[glutathione]", "values": [{"measurement": "levels of IG", "setting": "RNA [1]; 25° C., after 18 hours", "result": "reduced levels of IG"}]}, {"smiles": "N[C@@H](CCS)C(=O)O", "note": "[homo cysteine, homocysteine]", "values": [{"measurement": "levels of IG", "setting": "RNA [1]; 25° C., after 18 hours", "result": "reduced levels of IG"}]}, {"smiles": "O=S([O-])S(=O)(=O)[O-].[K+].[K+]", "note": "[potassium metabisulfite]", "values": [{"measurement": "initial rate of IG formation", "setting": "RNA [1]", "result": "effective at eliminating the fast initial rate of IG formation"}, {"measurement": "levels of IG", "setting": "RNA [1]; 25° C., after 18 hours", "result": "reduced levels of IG"}]}, {"smiles": "[BH4-].[Na+]", "note": "[sodium borohydrate]", "values": [{"measurement": "levels of IG", "setting": "RNA [1]; 25° C., after 18 hours", "result": "reduced levels of IG"}]}, {"smiles": "O=S([O-])S(=O)(=O)[O-].[Na+].[Na+]", "note": "[sodium metabisulfite]", "values": [{"measurement": "initial rate of IG formation", "setting": "RNA [1]", "result": "effective at eliminating the fast initial rate of IG formation"}]}, {"smiles": "O=C([O-])CS.[Na+]", "note": "[sodium thioglycolate]", "values": [{"measurement": "levels of IG", "setting": "RNA [1]; 25° C., after 18 hours", "result": "reduced levels of IG"}]}, {"smiles": "O=S([O-])([O-])=S.[Na+].[Na+]", "note": "[sodium thiosulfate]", "values": [{"measurement": "levels of IG", "setting": "RNA [1]; 25° C., after 18 hours", "result": "reduced levels of IG"}]}]}
